Assay results published in ChEMBL document CHEMBL5352441, “Modulation of FLT3-ITD and CDK9 in acute myeloid leukaemia cells by novel proteolysis targeting chimera (PROTAC)” (2022).
Calls of active or inactive are those of the source. The rule behind the calls is not given here.

What was measured:
[1] = biological target: Protein cereblon/Cyclin-dependent kinase 9 (Homo sapiens) (UniProt P50750+Q96SW2); experiment: PROTAC activity at CRBN/CDK9 in CRBN-deficient human MV4-11 cells assessed as induction of protein degradation at 0.004 to 2.5 uM incubated for 16 hrs by immunoblot analysis; type: cell-based; details: dose 0.004-2.5 µM
[2] = biological target: T1, Protein cereblon/Receptor-type tyrosine-protein kinase FLT3 (Homo sapiens) (UniProt P36888+Q96SW2); experiment: PROTAC activity at CRBN/FLT3 in human MV4-11 cells harboring FLT3-ITD mutation assessed as induction of protein degradation at low nanomolar concentrations incubated for 16 hrs by immunoblot analysis; type: cell-based
[3] = system: MV4-11; experiment: Induction of cell cycle arrest in human MV4-11 cells assessed as accumulation of cells at G1 phase at 0.1 uM incubated for 16 hrs by PI staining based flow cytometry analysis (reference value: 62.97%); type: functional
[4] = system: MV4-11; experiment: Induction of cell cycle arrest in human MV4-11 cells assessed as accumulation of cells at subG1 phase at 0.1 uM incubated for 16 hrs by PI staining based flow cytometry analysis (reference value: 10.51%); type: functional
[5] = system: MV4-11; experiment: Induction of cell cycle arrest in CRBN-deficient human MV4-11 cells assessed as accumulation of cells at S phase at 0.02 uM incubated for 16 hrs by PI staining based flow cytometry analysis (reference value: 36.91%); type: functional
[6] = system: MV4-11; experiment: Induction of cell cycle arrest in CRBN-deficient human MV4-11 cells assessed as accumulation of cells at G1 phase at 0.004 uM incubated for 16 hrs by PI staining based flow cytometry analysis (reference value: 54.05%); type: functional
[7] = system: MV4-11; experiment: Induction of cell cycle arrest in CRBN-deficient human MV4-11 cells assessed as accumulation of cells at S phase at 2.5 uM incubated for 16 hrs by PI staining based flow cytometry analysis (reference value: 36.91%); type: functional
[8] = system: MV4-11; experiment: Induction of cell cycle arrest in human MV4-11 cells assessed as accumulation of cells at S phase at 0.004 uM incubated for 16 hrs by PI staining based flow cytometry analysis (reference value: 26.16%); type: functional
[9] = system: MV4-11; experiment: Induction of apoptosis in CRBN-deficient human MV4-11 cells assessed as activation of caspase 7 at 0.004 to 25 uM incubated for 16 hrs in presence of Ac-DEVD-AMC by fluorescence microplate reader analysis; type: functional, cell-based; details: dose 0.004-25 µM
[10] = biological target: T1, Protein cereblon/Receptor-type tyrosine-protein kinase FLT3 (Homo sapiens); experiment: PROTAC activity at CRBN/FLT3 in human MV4-11 cells at 0.1 to 0.5 uM preincubated for 90 mins with MG132 followed by compound addition and further incubated for 16 hrs by immunoblot analysis; type: cell-based; details: dose 0.1-0.5 µM
[11] = system: MV4-11; experiment: Downregulation of Myb gene expression in human MV4-11 cells incubated for 4 hrs by qRT-PCR analysis; type: functional, cell-based; details: dose 0.004-2.5 µM
[12] = system: K562; experiment: Antiproliferative activity against human K562 cells assessed as cell growth inhibition incubated for 72 hrs by resazurin dye based fluorescence analysis; type: functional
[13] = system: MV4-11; experiment: Induction of cell cycle arrest in human MV4-11 cells assessed as accumulation of cells at subG1 phase at 0.5 uM incubated for 16 hrs by PI staining based flow cytometry analysis (reference value: 10.51%); type: functional
[14] = system: MV4-11; experiment: Induction of cell cycle arrest in CRBN-deficient human MV4-11 cells assessed as accumulation of cells at G1 phase at 0.1 uM incubated for 16 hrs by PI staining based flow cytometry analysis (reference value: 54.05%); type: functional
[15] = biological target: T1, Protein cereblon/Receptor-type tyrosine-protein kinase FLT3 (Homo sapiens); experiment: PROTAC activity at CRBN/FLT3 in CRBN-deficient human MV4-11 cells assessed as induction of protein degradation at 0.004 to 2.5 uM incubated for 16 hrs by immunoblot analysis; type: cell-based; details: dose 0.004-2.5 µM
[16] = system: MV4-11; experiment: Downregulation of HOXA9 gene expression in human MV4-11 cells incubated for 4 hrs by qRT-PCR analysis; type: functional, cell-based; details: dose 0.004-2.5 µM
[17] = system: MV4-11; experiment: Downregulation of MEISI gene expression in human MV4-11 cells incubated for 4 hrs by qRT-PCR analysis; type: functional, cell-based; details: dose 0.004-2.5 µM
[18] = system: MV4-11; experiment: Induction of cell cycle arrest in CRBN-deficient human MV4-11 cells assessed as accumulation of cells at sub-G1 phase at 0.1 uM incubated for 16 hrs by PI staining based flow cytometry analysis (reference value: 12.52%); type: functional
[19] = system: MV4-11; experiment: Induction of cell cycle arrest in human MV4-11 cells assessed as accumulation of cells at G2/M phase at 0.004 uM incubated for 16 hrs by PI staining based flow cytometry analysis (reference value: 10.86%); type: functional
[20] = system: MV4-11; experiment: Induction of cell cycle arrest in human MV4-11 cells assessed as accumulation of cells at G2/M phase at 2.5 uM incubated for 16 hrs by PI staining based flow cytometry analysis (reference value: 10.86%); type: functional
[21] = system: MV4-11; experiment: Induction of cell cycle arrest in CRBN-deficient human MV4-11 cells assessed as accumulation of cells at G2/M phase at 0.004 uM incubated for 16 hrs by PI staining based flow cytometry analysis (reference value: 9.34%); type: functional
[22] = system: HL-60; experiment: Antiproliferative activity against human HL-60 cells assessed as cell growth inhibition incubated for 72 hrs by resazurin dye based fluorescence analysis; type: functional
[23] = system: MV4-11; experiment: Induction of cell cycle arrest in human MV4-11 cells assessed as accumulation of cells at G1 phase at 0.02 uM incubated for 16 hrs by PI staining based flow cytometry analysis (reference value: 62.97%); type: functional
[24] = system: MV4-11; experiment: Induction of cell cycle arrest in human MV4-11 cells assessed as accumulation of cells at subG1 phase at 0.004 uM incubated for 16 hrs by PI staining based flow cytometry analysis (reference value: 10.51%); type: functional
[25] = system: MV4-11; experiment: Induction of apoptosis in human MV4-11 cells assessed as activation of caspase 3 at 0.1 to 0.5 uM preincubated for 90 mins with 4-hydroxythalidomide followed by compound addition and further incubated for 16 hrs in presence of Ac-DEVD-AMC by fluorescence microplate reader analysis; type: functional, cell-based; details: dose 0.1-0.5 µM
[26] = system: MV4-11; experiment: Induction of apoptosis in human MV4-11 cells assessed as activation of caspase 7 incubated for 16 hrs in presence of Ac-DEVD-AMC by fluorescence microplate reader analysis; type: functional, cell-based; details: dose 0.004-2.5 µM
[27] = system: MOLM-13; experiment: Antiproliferative activity against human MOLM-13 cells harboring FLT3-ITD mutation assessed as cell growth inhibition incubated for 72 hrs by resazurin dye based fluorescence analysis; type: functional
[28] = system: THP-1; experiment: Antiproliferative activity against human THP-1 cells assessed as cell growth inhibition incubated for 72 hrs by resazurin dye based fluorescence analysis; type: functional
[29] = biological target: Receptor-type tyrosine-protein kinase FLT3 (Homo sapiens) (UniProt P36888); experiment: Inhibition of FLT3 signalling pathway in human MV4-11 cells assessed as reduction in ERK1/2 phosphorylation at T202/Y204 residues at 0.1 to 0.5 uM preincubated for 90 mins with 4-hydroxythalidomide followed by compound addition and further incubated for 16 hrs by immunoblot analysis; type: cell-based; details: dose 0.1-0.5 µM
[30] = system: MV4-11; experiment: Induction of cell cycle arrest in CRBN-deficient human MV4-11 cells assessed as accumulation of cells at sub-G1 phase at 2.5 uM incubated for 16 hrs by PI staining based flow cytometry analysis (reference value: 12.52%); type: functional
[31] = Selectivity index, ratio of GI50 for antiproliferative activity against CRBN-deficient human MV4-11 cells to GI50 for antiproliferative activity against human MV4-11 cells harboring FLT3-ITD mutation; type: functional

T1 sequence (P36888 27-993 limits assumed): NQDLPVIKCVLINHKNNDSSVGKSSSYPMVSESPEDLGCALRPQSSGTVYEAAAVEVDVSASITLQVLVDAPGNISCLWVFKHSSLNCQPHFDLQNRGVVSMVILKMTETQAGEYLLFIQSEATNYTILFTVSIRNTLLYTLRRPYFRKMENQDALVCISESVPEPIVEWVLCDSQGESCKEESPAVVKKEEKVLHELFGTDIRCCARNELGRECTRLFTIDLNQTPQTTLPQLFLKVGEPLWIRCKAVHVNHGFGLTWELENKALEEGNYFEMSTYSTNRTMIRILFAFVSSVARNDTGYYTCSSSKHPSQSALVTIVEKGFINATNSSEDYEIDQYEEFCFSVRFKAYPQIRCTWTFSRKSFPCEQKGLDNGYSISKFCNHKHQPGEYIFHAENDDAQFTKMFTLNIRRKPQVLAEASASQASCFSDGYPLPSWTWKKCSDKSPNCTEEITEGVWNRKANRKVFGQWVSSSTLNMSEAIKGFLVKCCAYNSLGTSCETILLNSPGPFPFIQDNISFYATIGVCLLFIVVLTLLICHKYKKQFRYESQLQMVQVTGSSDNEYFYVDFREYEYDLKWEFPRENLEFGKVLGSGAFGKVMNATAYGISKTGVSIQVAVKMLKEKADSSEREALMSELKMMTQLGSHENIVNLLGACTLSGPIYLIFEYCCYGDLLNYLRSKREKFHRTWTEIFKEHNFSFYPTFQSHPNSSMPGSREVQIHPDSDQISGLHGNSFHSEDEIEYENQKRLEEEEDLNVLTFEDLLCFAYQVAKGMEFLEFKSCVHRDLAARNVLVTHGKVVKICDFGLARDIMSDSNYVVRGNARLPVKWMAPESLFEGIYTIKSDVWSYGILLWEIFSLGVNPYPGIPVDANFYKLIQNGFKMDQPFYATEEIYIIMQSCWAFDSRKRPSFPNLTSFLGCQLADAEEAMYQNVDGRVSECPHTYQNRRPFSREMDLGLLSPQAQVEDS
T1 sequence (Q96SW2 whole entry partner): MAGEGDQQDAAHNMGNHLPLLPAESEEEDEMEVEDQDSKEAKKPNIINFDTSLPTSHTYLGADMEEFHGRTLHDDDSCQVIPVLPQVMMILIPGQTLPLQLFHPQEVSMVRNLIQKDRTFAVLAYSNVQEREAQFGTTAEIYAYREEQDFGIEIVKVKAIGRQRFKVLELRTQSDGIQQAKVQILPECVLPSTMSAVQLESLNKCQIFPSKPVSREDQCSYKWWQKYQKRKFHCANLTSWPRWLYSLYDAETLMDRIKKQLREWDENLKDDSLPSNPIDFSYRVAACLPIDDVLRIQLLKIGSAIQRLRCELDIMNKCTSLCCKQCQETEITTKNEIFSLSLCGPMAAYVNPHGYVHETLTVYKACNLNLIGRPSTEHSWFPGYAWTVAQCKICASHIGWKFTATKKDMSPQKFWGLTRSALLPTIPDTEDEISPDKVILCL
Chain of Receptor-type tyrosine-protein kinase FLT3 (Homo sapiens) (P36888 whole entry): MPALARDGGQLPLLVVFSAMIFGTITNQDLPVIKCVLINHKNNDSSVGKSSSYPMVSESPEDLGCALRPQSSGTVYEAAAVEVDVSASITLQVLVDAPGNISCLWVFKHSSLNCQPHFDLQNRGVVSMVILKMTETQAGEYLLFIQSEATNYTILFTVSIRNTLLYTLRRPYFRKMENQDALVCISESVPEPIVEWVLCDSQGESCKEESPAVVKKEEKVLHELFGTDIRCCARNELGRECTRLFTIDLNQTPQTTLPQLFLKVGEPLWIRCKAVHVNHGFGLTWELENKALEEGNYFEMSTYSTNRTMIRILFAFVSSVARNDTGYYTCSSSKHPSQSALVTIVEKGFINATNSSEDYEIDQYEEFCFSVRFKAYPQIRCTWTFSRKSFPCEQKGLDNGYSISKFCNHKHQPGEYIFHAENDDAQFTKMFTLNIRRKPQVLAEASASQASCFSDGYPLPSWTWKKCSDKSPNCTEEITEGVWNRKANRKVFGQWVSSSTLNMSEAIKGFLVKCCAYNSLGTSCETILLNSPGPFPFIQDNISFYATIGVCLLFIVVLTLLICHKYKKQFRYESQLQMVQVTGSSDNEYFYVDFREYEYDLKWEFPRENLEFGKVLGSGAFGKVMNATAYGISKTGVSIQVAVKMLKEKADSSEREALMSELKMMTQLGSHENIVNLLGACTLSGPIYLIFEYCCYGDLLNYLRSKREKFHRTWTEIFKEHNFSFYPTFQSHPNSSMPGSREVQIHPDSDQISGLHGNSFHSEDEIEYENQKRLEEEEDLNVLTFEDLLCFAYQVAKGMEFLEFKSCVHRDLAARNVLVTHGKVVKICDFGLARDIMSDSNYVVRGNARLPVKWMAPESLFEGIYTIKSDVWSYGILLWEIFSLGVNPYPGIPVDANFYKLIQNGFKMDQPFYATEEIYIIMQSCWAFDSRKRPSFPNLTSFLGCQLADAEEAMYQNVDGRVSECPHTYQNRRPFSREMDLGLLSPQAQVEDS
Chain of Protein cereblon/Cyclin-dependent kinase 9 (Homo sapiens) (P50750 whole entry, looked up): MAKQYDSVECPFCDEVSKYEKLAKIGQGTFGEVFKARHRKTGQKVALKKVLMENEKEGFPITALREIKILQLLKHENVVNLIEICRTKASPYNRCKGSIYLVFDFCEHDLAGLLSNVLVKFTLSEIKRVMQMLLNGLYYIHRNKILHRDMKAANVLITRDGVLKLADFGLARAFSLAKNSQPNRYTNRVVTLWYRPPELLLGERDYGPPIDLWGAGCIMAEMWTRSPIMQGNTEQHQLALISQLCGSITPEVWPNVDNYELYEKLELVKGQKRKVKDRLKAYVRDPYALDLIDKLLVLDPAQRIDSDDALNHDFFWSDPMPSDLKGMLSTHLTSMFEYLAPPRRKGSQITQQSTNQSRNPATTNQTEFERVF
Chain of Protein cereblon/Cyclin-dependent kinase 9 (Homo sapiens) (Q96SW2 whole entry, looked up): as the sequence (Q96SW2 whole entry partner) above

NC1CCC(Nc2nc(Nc3ccc(N4CCN(CCOCCOCCNC(=O)CNc5cccc6c5C(=O)N(C5CCC(=O)NC5=O)C6=O)CC4)cc3)c3ncn(C4CCCC4)c3n2)CC1 (stereo unspecified)
Activity [1]: inactive
Activity [2]: inactive
Activity [3]: 89.61%
Activity [4]: 20.86%
Activity [5]: 17.04%
Activity [6]: 63.08%
Activity [7]: 6.05%
Activity [8]: 21.5%
Activity [9]: inactive
Activity [10]: inactive
Activity [11]: Dose-Dependent Effect
GI50 [12]: > 10 µM
Activity [13]: 58.62%
Activity [14]: 90.54%
Activity [15]: inactive
Activity [16]: Dose-Dependent Effect
Activity [17]: Dose-Dependent Effect
Activity [18]: 17.71%
Activity [19]: 9.03%
Activity [20]: 7.79%
Activity [21]: 8.04%
GI50 [22]: 6.12 µM
Activity [23]: 82.36%
Activity [24]: 11.53%
Activity [25]: inactive
Activity [26]: Dose-Dependent Effect
GI50 [27]: 0.042 µM
GI50 [28]: 9.99 µM
inhibition [29]: Active
Activity [30]: 20.31%
RatioGI50 [31]: 2
